US6509318B1, “TGF-B inhibitors and methods” (The Regents of the University of California, priority 2000, dated 2003)
Non-standard residues stand in square brackets, D forms with d. No end group written: not given here.

Tests used:
TGF β-1 = assay: Inhibition of TGF β-1 activity by CITAs: reversal of TGF β-1 inhibition of DNA synthesis in MV-1-Lu cells; type: cell-based; settings: for DNA synthesis restored, relative to the level seen with TGF β-1: MV-1-Lu cells exposed to 5 nM TGF β-1, all concentrations of CITAs; for reversal of the inhibition of DNA synthesis caused by TGF β-1 / 3H-Thymidine Incorporation 10^3 d.p.m. ± S.D.: MV-1-Lu cells; for reversal of the inhibition of DNA synthesis caused by TGF β-1: TGF β-1 5 nM and 10 nM; for 3H-Thymidine Incorporation 10^3 d.p.m. ± S.D.: 24 h; for (+/−) % change over control when CITA is present: vs control (no additions)
Excerpt: (§1) Inhibition of TGF β-1 Activity by CITAs: We have used a standardized in vitro assay for TGF β-1 as a test for the biological activity of CITAs. Our test is based on inhibiting the effect of TGF β-1 on a test cell proliferation system. In this assay, mink lung epithelium MV-1-Lu cells are exposed to TGF β-1. […] The decrease in DNA synthesis can be monitored by measuring the incorporation of labeled precursors in DNA. The incorporation of ^3H-thymidine in DNA in MV-1-Lu cells are used as a measure of cell proliferation. […] These concentrations of TGF β-1 were based on the amounts of TGF β-1 found in normal serum and in serum from patients with peritonitis, an inflammatory disease. The normal amount of TGF β-1 in human serum is approximately 2 nM (39 pG/ml). In patients with peritonitis, the amount increases to nearly 10 nM (169-216 pG/ml). The incorporation of ^3H-thymidine in the absence of TGF β-1 served as the control. To test the anti-TGF β-1 activity of CITAs, the cells were exposed to 1 nM, 10 nM, and 100 nM CITA-I, CITA-II, and CITA-III in the absence and in the presence of 5.0 nM and 10.0 nM TGF β-1.
(§2) Details of Experimental Procedures: 10^4 MV-1-Lu were plated in each well of a 12 well plate in 2.0 ml minimum essential medium containing non-essential amino acids (MEM) and 10% fetal bovine serum. After 24 hours, the medium was placed with serum free MEM and the cells were further cultured for two hours before the medium was placed with serum free MEM containing the test additives. After exposure to the test medium for 24 hours, the cells were pulse labeled for two hours with 0.5 μCi (methyl-^3H)-thymidine, (specific activity 60 Ci/mmol). After pulse labeling, the radioactive medium was removed, and the cells were washed 1× with 10% trichloracetic acid (TCA), 2× with 5% TCA, then 2× with phosphate buffered saline containing 50 μg/ml non-radioactive thymidine. The wash solutions were monitored to establish that no further unbound radioactive thymidine remained. The washed cell layers were dissolved in 1 ml 0.1 N NaOH containing 1% sodium dodecyl sulfate. The radioactivity in the solution was measured in a scintillation counter and expressed as disintegrations per minute (d.p.m.). Each test was carried out in quadruplicate, and the data presented as mean±standard deviation.

[1] = tested on: mink lung epithelium MV-1-Lu cells; assay: DNA synthesis (3H-thymidine incorporation) in MV-1-Lu cells, additions alone; type: cell-based; settings: for 3H-Thymidine Incorporation 10^3 d.p.m. ± S.D. / (+/−) % change over control when CITA is present: no TGF β-1; for 3H-Thymidine Incorporation 10^3 d.p.m. ± S.D.: MV-1-Lu cells, 24 h; for (+/−) % change over control when CITA is present: vs control (no additions); for decrease of DNA synthesis against the control: CITA alone, all concentrations examined (1, 10, 100 nM)
Excerpt: as §1, §2

[2] = TGF β-1 5 nM + CITA 1 nM, relative to TGF β-1 5 nM alone
[3] = TGF β-1 5 nM + CITA 10 nM, relative to TGF β-1 5 nM alone
[4] = TGF β-1 5 nM + CITA 100 nM, relative to TGF β-1 5 nM alone
[5] = TGF β-1 10 nM + CITA 1 nM, relative to TGF β-1 10 nM alone
[6] = TGF β-1 10 nM + CITA 10 nM, relative to TGF β-1 10 nM alone
[7] = TGF β-1 10 nM + CITA 100 nM, relative to TGF β-1 10 nM alone

| Substance | DNA synthesis restored, relative to the level seen with TGF β-1 (TGF β-1) [×] | reversal of the inhibition of DNA synthesis caused by TGF β-1 (TGF β-1) | % Increase over TGF β-1. TGF β-1 + CITA/TGF β-1 × 100 (TGF β-1; [2]) [%] | 3H-Thymidine Incorporation 10^3 d.p.m. ± S.D. (TGF β-1; TGF β-1 5 nM + CITA 1 nM) | (+/−) % change over control when CITA is present (TGF β-1; TGF β-1 5 nM + CITA 1 nM) [%] | % Increase over TGF β-1. TGF β-1 + CITA/TGF β-1 × 100 (TGF β-1; [3]) [%] | 3H-Thymidine Incorporation 10^3 d.p.m. ± S.D. (TGF β-1; TGF β-1 5 nM + CITA 10 nM) | (+/−) % change over control when CITA is present (TGF β-1; TGF β-1 5 nM + CITA 10 nM) [%] | % Increase over TGF β-1. TGF β-1 + CITA/TGF β-1 × 100 (TGF β-1; [4]) [%] | 3H-Thymidine Incorporation 10^3 d.p.m. ± S.D. (TGF β-1; TGF β-1 5 nM + CITA 100 nM) | (+/−) % change over control when CITA is present (TGF β-1; TGF β-1 5 nM + CITA 100 nM) [%] | % Increase over TGF β-1. TGF β-1 + CITA/TGF β-1 × 100 (TGF β-1; [5]) [%] | 3H-Thymidine Incorporation 10^3 d.p.m. ± S.D. (TGF β-1; TGF β-1 10 nM + CITA 1 nM) | (+/−) % change over control when CITA is present (TGF β-1; TGF β-1 10 nM + CITA 1 nM) [%] | % Increase over TGF β-1. TGF β-1 + CITA/TGF β-1 × 100 (TGF β-1; [6]) [%] | 3H-Thymidine Incorporation 10^3 d.p.m. ± S.D. (TGF β-1; TGF β-1 10 nM + CITA 10 nM) | (+/−) % change over control when CITA is present (TGF β-1; TGF β-1 10 nM + CITA 10 nM) [%] | % Increase over TGF β-1. TGF β-1 + CITA/TGF β-1 × 100 (TGF β-1; [7]) [%] | 3H-Thymidine Incorporation 10^3 d.p.m. ± S.D. (TGF β-1; TGF β-1 10 nM + CITA 100 nM) | (+/−) % change over control when CITA is present (TGF β-1; TGF β-1 10 nM + CITA 100 nM) [%] | also measured |
| --- | --- | --- | --- | --- | --- | --- | --- | --- | --- | --- | --- | --- | --- | --- | --- | --- | --- | --- | --- | --- | --- |
| Phe-Ile-Ala-Pro-D-Glu-Ala (FIAP[dE]A) [CITA-II] | 2 | markedly reversed the inhibition of DNA synthesis | 184 | 31.04 ± 1.07 10^3 d.p.m. | −29 | 169 | 27.75 ± 1.50 10^3 d.p.m. | −45 | 207 | 34.00 ± 0.86 10^3 d.p.m. | −49 | 970 | 18.51 ± 1.23 10^3 d.p.m. | −63 | 1084 | 20.70 ± 2.63 10^3 d.p.m. | −55 | 981 | 18.73 ± 1.67 10^3 d.p.m. | −70 | 3H-Thymidine Incorporation 10^3 d.p.m. ± S.D. ([1]; CITA 1 nM alone): 45.10 ± 1.27 10^3 d.p.m.; (+/−) % change over control when CITA is present ([1]; CITA 1 nM alone): −22%; 3H-Thymidine Incorporation 10^3 d.p.m. ± S.D. ([1]; CITA 10 nM alone): 42.03 ± 1.11 10^3 d.p.m.; (+/−) % change over control when CITA is present ([1]; CITA 10 nM alone): −27%; 3H-Thymidine Incorporation 10^3 d.p.m. ± S.D. ([1]; CITA 100 nM alone): 43.08 ± 1.23 10^3 d.p.m.; (+/−) % change over control when CITA is present ([1]; CITA 100 nM alone): −25%; decrease of DNA synthesis against the control [1]: approximately 20% |
| Leu-Phe-Ala-Pro-D-Glu-Ala (LFAP[dE]A) [CITA-III] | 2 | markedly reversed the inhibition of DNA synthesis | 207 | 34.00 ± 0.86 10^3 d.p.m. | −41 | 207 | 34.03 ± 1.11 10^3 d.p.m. | −41 | 184 | 30.23 ± 1.69 10^3 d.p.m. | −48 | 1275 | 24.36 ± 1.14 10^3 d.p.m. | −58 | 997 | 19.04 ± 1.47 10^3 d.p.m. | −67 | 907 | 17.32 ± 0.27 10^3 d.p.m. | −70 | 3H-Thymidine Incorporation 10^3 d.p.m. ± S.D. ([1]; CITA 1 nM alone): 44.67 ± 2.26 10^3 d.p.m.; (+/−) % change over control when CITA is present ([1]; CITA 1 nM alone): −23%; 3H-Thymidine Incorporation 10^3 d.p.m. ± S.D. ([1]; CITA 10 nM alone): 47.19 ± 3.00 10^3 d.p.m.; (+/−) % change over control when CITA is present ([1]; CITA 10 nM alone): −18%; 3H-Thymidine Incorporation 10^3 d.p.m. ± S.D. ([1]; CITA 100 nM alone): 44.36 ± 1.76 10^3 d.p.m.; (+/−) % change over control when CITA is present ([1]; CITA 100 nM alone): −23%; decrease of DNA synthesis against the control [1]: approximately 20% |
